Data reported in US12036312B2, “Non-aqueous topical compositions comprising a halogenated salicylanilide” (priority 2016, dated 2024).
In brackets after ≈: the same amount, converted by molar mass.

Tested on: S. aureus
Test: MIC assay according to CLSI criteria, Example 2, S. aureus strains
Type: cell-based, Staphylococcus aureus
Conditions: Staphylococcus aureus
Excerpt: Chosen for its relevance regarding bacterial skin infections, the methicillin-resistant S. aureus (MRSA) 01 strain was used as the primary test microorganism. This strain is a community-acquired MRSA clinical isolate of USA 300 type, from a skin abscess.
Two-hundred-four other MRSA and methicillin-sensitive S. aureus strains, and 4 Streptococcus pyogenes strains, were also included in the study. These covered fusidic acid- and mupirocin-resistant strains, these two types of resistance being of clinical relevance.
Strains were conserved in Luria Bertani (LB) Broth (S. aureus) or Brain Heart Infusion (BHI) (S. pyogenes) supplemented with glycerol 15% (v/v) at −80° C., and reactivated by isolation on LB (S. aureus) or BHI (S. pyogenes) agar plates. Strains were cultivated in Mueller Hinton (MH) Broth-cation adjusted (S. aureus) or BHI (S. pyogenes). All strains were cultivated aerobically (microaerobically for S. pyogenes strains) at 37° C.
Bacterial cultures were stopped in their exponential growth phase and plates were inoculated with the approximate concentration of 5×10^5 cells per well. Plates were incubated at 37° C. for 18 hours (S. aureus) or 24 hours (S. pyogenes). Optical density at a wavelength of 600 nm was measured at the end of the incubation time.

Compound: C=C[C@]1(C)C[C@@H](OC(=O)CS[C@@H]2C[C@H]3CC[C@@H](C2)N3C)[C@]2(C)[C@H](C)CC[C@]3(CCC(=O)[C@H]32)[C@@H](C)[C@@H]1O [Retapamulin, retapamulin]
- MIC (MRSA, strain MRSA 102): 0.03 µg/mL (≈ 0.0579 µM)
- MIC (MRSA, strain MRSA 103): 0.03 µg/mL (≈ 0.0579 µM)
- MIC (MRSA, strain MRSA 104): 0.03 µg/mL (≈ 0.0579 µM)
- MIC (MRSA, strain MRSA 105): 0.03 µg/mL (≈ 0.0579 µM)
- MIC (MRSA, strain MRSA 106): 0.06 µg/mL (≈ 0.116 µM)
- MIC (MRSA, strain MRSA 107): 0.06 µg/mL (≈ 0.116 µM)
- MIC (MRSA, strain MRSA 108): 0.03 µg/mL (≈ 0.0579 µM)
- MIC (MRSA, strain MRSA 109): 0.03 µg/mL (≈ 0.0579 µM)
- MIC (MRSA, strain MRSA 110): 0.03 µg/mL (≈ 0.0579 µM)
- MIC (MRSA, strain MRSA 111): 0.03 µg/mL (≈ 0.0579 µM)
- MIC (MRSA, strain MRSA 112): 0.03 µg/mL (≈ 0.0579 µM)
- MIC (MRSA, strain MRSA 113): 0.03 µg/mL (≈ 0.0579 µM)
- MIC (MSSA, strain MSSA 01): 0.03 µg/mL (≈ 0.0579 µM)
- MIC (MSSA, strain MSSA 02): 0.03 µg/mL (≈ 0.0579 µM)
- MIC (NEWMAN, strain Newman): 0.03 µg/mL (≈ 0.0579 µM)
- MIC (strain 9-1862936): 0.03 µg/mL (≈ 0.0579 µM)
- MIC (strain 9-2625962): 0.03 µg/mL (≈ 0.0579 µM)
- MIC (strain 9-2642158): 0.06 µg/mL (≈ 0.116 µM)
- MIC (strain 9-2955245): 0.06 µg/mL (≈ 0.116 µM)
- MIC (strain 9-26422166): 0.03 µg/mL (≈ 0.0579 µM)
- MIC (strain 000040C): 0.03 µg/mL (≈ 0.0579 µM)
- MIC (strain 000041C): 0.03 µg/mL (≈ 0.0579 µM)
- MIC (strain 000274T): 0.06 µg/mL (≈ 0.116 µM)
- MIC (strain 114660U): 0.06 µg/mL (≈ 0.116 µM)
- MIC (strain 115015T): 0.06 µg/mL (≈ 0.116 µM)
- MIC (strain 115242C): 0.03 µg/mL (≈ 0.0579 µM)
- MIC (strain 115263C): 0.03 µg/mL (≈ 0.0579 µM)
- MIC (strain 115268C): 0.03 µg/mL (≈ 0.0579 µM)
- MIC (strain 115273C): 0.03 µg/mL (≈ 0.0579 µM)
- MIC (strain 115295C): 0.03 µg/mL (≈ 0.0579 µM)
- MIC (strain 115303C): 0.03 µg/mL (≈ 0.0579 µM)
- MIC (strain 115370U): 0.06 µg/mL (≈ 0.116 µM)
- MIC (strain 115427C): 0.03 µg/mL (≈ 0.0579 µM)
- MIC (strain 115445C): 0.03 µg/mL (≈ 0.0579 µM)
- MIC (strain 115561C): 0.03 µg/mL (≈ 0.0579 µM)
- MIC (strain 115584D): 0.06 µg/mL (≈ 0.116 µM)
- MIC (strain 115628T): 0.03 µg/mL (≈ 0.0579 µM)
- MIC (strain 115690C): 0.25 µg/mL (≈ 0.483 µM)
- MIC (strain 115691T): 0.03 µg/mL (≈ 0.0579 µM)
- MIC (strain 115740E): 0.06 µg/mL (≈ 0.116 µM)
- MIC (strain 115810E): 0.06 µg/mL (≈ 0.116 µM)
- MIC (strain 115903T): 0.03 µg/mL (≈ 0.0579 µM)
- MIC (strain 116122T): 0.03 µg/mL (≈ 0.0579 µM)
- MIC (strain E5-1029252): 0.03 µg/mL (≈ 0.0579 µM)
- MIC (strain E5-1029558): 0.03 µg/mL (≈ 0.0579 µM)
- MIC (strain E5-1030440): 0.06 µg/mL (≈ 0.116 µM)
- MIC (strain E5-1030469): 0.03 µg/mL (≈ 0.0579 µM)
- MIC (strain E5-1030472): 0.06 µg/mL (≈ 0.116 µM)
- MIC (strain E5-1030482): 0.02 µg/mL (≈ 0.0386 µM)
- MIC (strain E5-1033076 (first listing, r204)): 0.03 µg/mL (≈ 0.0579 µM)
- MIC (strain E5-1033076 (second listing, r205)): 0.03 µg/mL (≈ 0.0579 µM)
- MIC (strain E5-1033088): 0.03 µg/mL (≈ 0.0579 µM)
- MIC (strain E5-1033091): 0.02 µg/mL (≈ 0.0386 µM)
- MIC (strain E5-1035277): 0.03 µg/mL (≈ 0.0579 µM)
- MIC (strain E5-1035284): 0.03 µg/mL (≈ 0.0579 µM)
- MIC (strain E5-1035775): 0.06 µg/mL (≈ 0.116 µM)
- MIC (strain E5-1035779): 0.03 µg/mL (≈ 0.0579 µM)
- MIC (strain E5-1037958): 0.06 µg/mL (≈ 0.116 µM)
- MIC (strain E5-1037971): 0.03 µg/mL (≈ 0.0579 µM)
- MIC (strain E5-1038279): 0.03 µg/mL (≈ 0.0579 µM)
- MIC (strain E5-1038286): 0.06 µg/mL (≈ 0.116 µM)
- MIC (strain E5-1038294): 0.03 µg/mL (≈ 0.0579 µM)
- MIC (strain E5-1039684): 0.06 µg/mL (≈ 0.116 µM)
- MIC (strain E5-1039697): 0.06 µg/mL (≈ 0.116 µM)
- MIC (strain E5-1041977): 0.03 µg/mL (≈ 0.0579 µM)
- MIC (strain E5-1041979): 0.03 µg/mL (≈ 0.0579 µM)
- MIC (strain E5-1041980): 0.03 µg/mL (≈ 0.0579 µM)
- MIC (strain E5-1041987): 0.03 µg/mL (≈ 0.0579 µM)
- MIC (strain E5-1043184): 0.03 µg/mL (≈ 0.0579 µM)
- MIC (strain E5-1043668): 0.06 µg/mL (≈ 0.116 µM)
- MIC (strain E5-1045179): 0.06 µg/mL (≈ 0.116 µM)
- MIC (strain E5-1046019): 0.03 µg/mL (≈ 0.0579 µM)
- MIC (strain E5-1046020): 0.06 µg/mL (≈ 0.116 µM)
- MIC (strain E5-1046039): 0.06 µg/mL (≈ 0.116 µM)
- MIC (strain E5-1046070): 0.03 µg/mL (≈ 0.0579 µM)
- MIC (strain E5-1046074): 0.06 µg/mL (≈ 0.116 µM)
- MIC (strain E5-1046085): 0.06 µg/mL (≈ 0.116 µM)
- MIC (strain E5-1046096): 0.06 µg/mL (≈ 0.116 µM)
- MIC (strain E5-1046296): 0.03 µg/mL (≈ 0.0579 µM)
- MIC (strain E5-1046297): 0.06 µg/mL (≈ 0.116 µM)
- MIC (strain E5-1046298): 0.03 µg/mL (≈ 0.0579 µM)
- MIC (strain E5-1046723): 0.06 µg/mL (≈ 0.116 µM)
- MIC (strain E5-1047585): 0.03 µg/mL (≈ 0.0579 µM)
- MIC (strain E5-1047606): 0.03 µg/mL (≈ 0.0579 µM)
- MIC (strain E5-1047924): 0.03 µg/mL (≈ 0.0579 µM)
- MIC (strain E5-1048204): 0.03 µg/mL (≈ 0.0579 µM)
- MIC (strain E5-1048428): 0.06 µg/mL (≈ 0.116 µM)
- MIC (strain E5-1048654): 0.06 µg/mL (≈ 0.116 µM)
- MIC (strain E5-1048670): 0.06 µg/mL (≈ 0.116 µM)
- MIC (strain EEFIC 01): 0.03 µg/mL (≈ 0.0579 µM)
- MIC (strain EEFIC 02): 0.03 µg/mL (≈ 0.0579 µM)
- MIC (strain K000772): 0.06 µg/mL (≈ 0.116 µM)
- MIC (strain K000796): 0.03 µg/mL (≈ 0.0579 µM)
- MIC (strain K000863): 0.03 µg/mL (≈ 0.0579 µM)
- MIC (strain K000864): 0.03 µg/mL (≈ 0.0579 µM)
- MIC (strain K000866): 0.03 µg/mL (≈ 0.0579 µM)
- MIC (strain K115498): 0.03 µg/mL (≈ 0.0579 µM)
- MIC (strain K115688): 0.03 µg/mL (≈ 0.0579 µM)
- MIC (strain K115689): 0.03 µg/mL (≈ 0.0579 µM)
- MIC (strain R000019): 0.06 µg/mL (≈ 0.116 µM)
- MIC (strain R000020): 0.03 µg/mL (≈ 0.0579 µM)
- MIC (strain R000024): 0.06 µg/mL (≈ 0.116 µM)
- MIC (strain U115579): 0.06 µg/mL (≈ 0.116 µM)
